Publication PMC12596218 (Journal of Lipid Research, 2025)
Where “and” joins values, the source holds several entries; their conditions need not be identical. Equal entries are not always repeated.

How the values were obtained:
[1] = biological target: T1, ASBT S294T/I295V (ASBT→mAsbt) (Homo sapiens, UniProt Q12908, I295V/S294T); test: [3H]TC transport and inhibition assay, ASBT→mAsbt mutant in HEK293 cells; type: cell-based; settings: for Inhibition curve/AUC of ASBT→mAsbt mutant compared to wild-type ASBT: 1 μM [3H]TC, 10 min, AUC combined from two experiments
T1 construct: stably transfected with the full open reading frames of human NTCP, ASBT, SOAT, OATP1B1, OATP1B3, OATP2B1, and murine Asbt (mAsbt); expressed in transfected cells; host or cells: HEK293, stably transfected
T1 sequence (Q12908 1-348 S294T/I295V): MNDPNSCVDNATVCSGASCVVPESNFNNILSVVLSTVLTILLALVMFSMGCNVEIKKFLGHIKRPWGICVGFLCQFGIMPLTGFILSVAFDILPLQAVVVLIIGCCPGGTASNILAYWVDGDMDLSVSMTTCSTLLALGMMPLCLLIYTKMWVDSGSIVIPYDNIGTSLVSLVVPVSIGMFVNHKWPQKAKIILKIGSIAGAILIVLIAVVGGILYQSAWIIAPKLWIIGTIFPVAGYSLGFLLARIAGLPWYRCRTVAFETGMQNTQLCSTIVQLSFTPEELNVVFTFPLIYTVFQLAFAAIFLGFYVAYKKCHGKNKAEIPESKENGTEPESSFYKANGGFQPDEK
Method: Amplification was performed on a peqSTAR XS PEQLAB PCR cycler (Peqlab) with Pfu DNA polymerase (M774A; Promega) in 18 cycles under the following conditions: initial denaturation for 2 min at 95°C, denaturation for 30 s at 95°C, annealing for 1 min at 55°C, extension for 8 min and 30 s at 72°C, final elongation for 10 min at 72°C and final hold at 4°C. After amplification, the products were digested with DpnI (ER1701; Thermo Fisher Scientific) for 1 h at 37°C and transformed into TOP10 chemically competent E. coli (Thermo Fisher Scientific). Plasmids were isolated using a GeneJET Plasmid Miniprep Kit (Thermo Fisher Scientific) according to the manufacturer's protocol, and the generated point mutations were verified by DNA sequencing (Seqlab Microsynth).
(§1) Cells were seeded onto poly-L-lysine-coated 96-well plates, induced with 1 μg/ml tetracycline, and grown to confluence over 72 h at 37°C. Then, cells were washed with tempered (37°C) phosphate-buffered saline (PBS, containing 137.0 mM NaCl, 2.7 mM KCl, 1.5 mM KH2PO4, and 7.3 mM Na2HPO4, at pH 7.4) and preincubated with 80 μl sodium transport buffer (STB, containing 142.9 mM NaCl, 4.7 mM KCl, 1.2 mM MgSO4, 1.2 mM KH2PO4, 1.8 mM CaCl2, and 20.0 mM HEPES, at pH 7.4) for 5 min at 37°C. For inhibition studies, the medium was replaced by 80 μl STB containing the respective inhibitor or solvent alone and cells were further incubated for 5 min at 37°C. Transport experiments were started by adding 20 μl of a 5-fold concentrated substrate solution (solved in STB). For transport experiments under sodium-free conditions the same buffer composition was used as for STB, but sodium chloride was substituted with equimolar concentrations of choline chloride as previously reported ([20], [24]). Transport experiments were stopped by washing twice with ice-cold PBS and the plates were kept cool on ice until adding the lysis buffer [1% sodium dodecyl sulfate (SDS) and 1 N NaOH]. Then, the cell-associated radioactivity of the respective tritium-labeled substrate or ligand was quantified by liquid scintillation counting using MicroScint-20 scintillation cocktail (Revvity) in a Packard Microplate Scintillation Counter TopCount NXT (Packard Instrument Company). For IC50 transport inhibition measurements, the mean uptake values measured in non-carrier-expressing HEK293 control cells were defined as 0% uptake control and were subtracted from all other values. Values from cells without inhibitor and solvent alone were set to 100%. Finally, all net transport data were expressed as uptake or binding as % of control. All transport or inhibition graphs were generated with GraphPad Prism 6 (GraphPad). Determination of half maximal inhibitory concentrations (IC50) was done by nonlinear regression analysis using the equation log (inhibitor) versus response—variable slope settings. All data points of the IC50 curves represent means ± SD of quadruplicate determinations. For Km measurements, BS uptake in the absence of sodium was regarded as carrier-independent unspecific uptake and was subtracted from the transport rates in the presence of sodium to obtain carrier-specific uptake rates (indicated as dashed lines). From the specific uptake rates, Michaelis Menten Km values were calculated by non-linear regression analysis.

OATP1B1 = biological target: T2, OATP1B1 (Homo sapiens, UniProt Q9Y6L6); test: [3H]E1S transport inhibition assay in OATP1B1-HEK293 cells; type: cell-based; settings: 200 nM [3H]E1S, 10 min; two independent experiments
T2 construct: stably transfected with the full open reading frames of human NTCP, ASBT, SOAT, OATP1B1, OATP1B3, OATP2B1, and murine Asbt (mAsbt); expressed in transfected cells; host or cells: HEK293, stably transfected (OATP1B1-HEK), tetracycline-induced
T2 sequence (Q9Y6L6 1-691): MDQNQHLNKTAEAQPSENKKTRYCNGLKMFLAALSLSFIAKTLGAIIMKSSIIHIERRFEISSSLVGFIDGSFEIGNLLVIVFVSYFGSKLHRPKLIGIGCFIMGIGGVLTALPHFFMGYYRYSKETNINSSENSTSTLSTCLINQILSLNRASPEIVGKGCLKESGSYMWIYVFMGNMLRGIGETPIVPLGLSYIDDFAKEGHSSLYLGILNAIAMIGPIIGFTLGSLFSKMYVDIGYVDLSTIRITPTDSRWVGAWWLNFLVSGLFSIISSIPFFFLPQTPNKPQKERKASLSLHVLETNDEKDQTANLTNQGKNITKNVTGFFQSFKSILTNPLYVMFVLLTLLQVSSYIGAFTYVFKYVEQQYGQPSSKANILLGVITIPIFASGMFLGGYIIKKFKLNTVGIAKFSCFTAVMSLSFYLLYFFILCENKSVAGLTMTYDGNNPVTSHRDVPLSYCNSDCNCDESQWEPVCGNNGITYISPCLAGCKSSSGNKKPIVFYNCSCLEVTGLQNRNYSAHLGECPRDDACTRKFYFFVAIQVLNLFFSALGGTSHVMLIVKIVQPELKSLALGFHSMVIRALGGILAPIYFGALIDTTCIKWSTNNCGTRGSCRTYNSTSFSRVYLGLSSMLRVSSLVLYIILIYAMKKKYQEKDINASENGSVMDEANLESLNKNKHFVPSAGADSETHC
Excerpt: Human embryonic kidney HEK293 cells, stably transfected with the full open reading frames of human NTCP, ASBT, SOAT, OATP1B1, OATP1B3, OATP2B1, and murine Asbt (mAsbt) were used as reported ([18], [20], [21], [22], [23]). The NTCP, ASBT, and mAsbt constructs were C-terminally tagged with the FLAG epitope, and the SOAT construct was C-terminally tagged with green fluorescent protein. Non-transfected Flp-In HEK293 cells (Thermo Fisher Scientific) served as the control. All cell lines were maintained at 37°C, 5% CO2 and 95% humidity in DMEM/F-12 medium (Thermo Fisher Scientific) supplemented with 10% fetal calf serum (Sigma-Aldrich), 4 mM L-glutamine (PAA) and penicillin/streptomycin (PAA). Expression of the respective carrier protein was induced by tetracycline treatment at 1 μg/ml (Carl Roth GmbH + Co. KG).
as §1

SMILES	Inhibition curve/AUC of ASBT→mAsbt mutant compared to wild-type ASBT [1]	IC50 (OATP1B1)	Transport inhibition at highest substrate concentration ([1]; 500 μM [3H]TC)	IC50 values at increasing substrate concentrations (in words) ([1]; [3H]TC 0.3-500 μM)
CCCCC1(CCCC)CS(=O)(=O)c2ccc(N(C)C)cc2[C@@H](c2ccc(OCCCC[N+]34CCN(CC3)CC4)cc2)[C@H]1O [SC-435]	this effect was also observed	> 10 µM and 41.3 µM and 30.7 µM		
CCCCC1(CCCC)CS(=O)(=O)c2ccc(N(C)C)cc2[C@@H](c2ccc(OCc3ccc(C[N+]45CCN(CC4)CC5)cc3)cc2)[C@H]1O [maralixibat]		9 µM and 8.3 µM		
CCCCC1(CCCC)CN(c2ccccc2)c2cc(SC)c(OCC(=O)N[C@@H](C(=O)N[C@@H](CC)C(=O)O)c3ccc(O)cc3)cc2S(=O)(=O)N1 [odevixibat]	not different	4 µM and 1.6 µM		

Further lines, with some results ahead:

Inhibition curve/AUC of ASBT→mAsbt mutant compared to wild-type ASBT [1]	IC50 (OATP1B1)	Transport inhibition at highest substrate concentration ([1]; 500 μM [3H]TC)	SMILES	IC50 values at increasing substrate concentrations (in words) ([1]; [3H]TC 0.3-500 μM)
not different	4.5 µM and 4.4 µM		CCCCC1(CCCC)CN(c2ccccc2)c2cc(SC)c(OCC(=O)N[C@@H](C(=O)NCC(=O)O)c3ccccc3)cc2S(=O)(=O)C1 [elobixibat]	
significantly reduced the AUC values	> 10 µM and 29.1 µM and 12 µM	full transport inhibition	CCCC[C@]1(CC)CS(=O)(=O)c2cc(CNC(CC(=O)O)CC(=O)O)c(OC)cc2[C@@H](c2ccccc2)N1 [linerixibat]	remained quite stable
